Results published in patent publication EP3248604A1, “AGENTS FOR MODULATION OF WNT-TCF SIGNALLING AND USES THEREOF” (UNIVERSITE DE GENEVE, priority 2016, dated 2017).

How the values were obtained:
Assay type in all cases: cell-based, human
Epigenetic regulators = assay: RT-qPCR of epigenetic regulators in HT29 cells; conditions: 0.5 µM
Method: (§1) RT-qPCR was performed as in Melotti et al. (2014, supra) using BioRad equipment and reagents. Cells cultured in nitro were treated with the desired concentration of drug in DMEM-F12 and reduced serum (2.5% FBS) for 16h, unless otherwise noted, and collected in Trizol (Sigma) before total RNA extraction and cDNA synthesis. Primers were as in Table 1. HPRT (gene encoding Hypoxanthine phosphoribosyltransferase 1) and βACTIN were used as housekeeping controls for normalization.
The WNT-TCF-independent repressive activity of CAP2 on epigenetic regulators may be extrapolated to other cancer cells as it was also detected in HT29 and CC14 human colon cancer cells, in MeWo human melanoma cells as well as in U87 and U251 human glioma cells. In all these different human cancer cells, CAP2 (at 0.5 µM) modulated the expression of ZMYND8, SMARCAL1, TBLIXR1, SETD6 and TAF5Ls (Table 15).

DLD1 cells = assay: Clonal spheroid assay, DLD1; conditions: Homo sapiens, DLD-1, 16 h, read-out: IC50, number of stem cell-derived spheroids
Method: Cells were treated with different concentrations of compounds for 16h in 2D adherent culture, washed, harvested and plated in suspension with serum-free DMEM-F12 media with B27 supplement (1:50 dilution) at 1 cell/well in 96-well format in triplicates. Plated cells were monitored to ensure the presence of single cells in each well and spheroids counted and photographed after 10 days for each round.
To directly test for a long-lasting repression of WNT-TCF targets by CAP2 clonogenic properties of cancer stem cells were tested. DLD1 and LS174T cells were first treated with CAP2 in 2D culture in vitro followed by removal of the drug, washing with PBS, and plating under non-adherent 3D conditions for clonal spheroid growth in the absence of the drug. After primary spheroid growth, the spheroids were dissociated and replated as single cells for secondary and subsequent clonogenic spheroid formation, also in the absence of the compound of the invention. As negative control DMSO-treatment was used.

WNT-TCF targets [1] = assay: RT-qPCR gene expression in DLD1 cells
Method: as §1
(§2) Primary colon cells CC14, CC36 and mCC11, colon cancer cell lines DLD1, HT29, Ls174T, melanoma cell line MeWo, glioblastoma cell lines U87 and U251, and the lung cancer cell line H358 were cultured in DMEM-F12 with 10% FBS under standard in nitro conditions.

WNT-TCF targets [2] = assay: RT-qPCR gene expression in U251 glioblastoma cells; conditions: 16h, batch 3, vs DMSO=1
Method: as §1, §2

WNT-TCF targets [3] = assay: RT-qPCR gene expression in MeWo melanoma cells; conditions: 16h, batch 3, vs DMSO=1
Method: as §1, §2

WNT-TCF targets [4] = assay: Epistatic rescue with TCF^VP16, mCC11; conditions: CAP2 5µM, 16h
Method: Lentivectors expressing a TCF4^VP16 protein in a vector independently expressing GFP, or vector alone, plus reporter plasmids were transfected into cells. 72h after transfection cells were visually checked for expression of GFP. Independent batches of cells with >80% GFP expression were chosen for further experimentation and treated with or without compounds in DMEM-F12 (with 2.5% FBS) for 16h and collected in Trizol.
If the effects of CAP2 on WNT-TCF targets were specific, an activated form of TCF should rescue the repression since CAP2 is likely to act downstream of the APC destruction complex since it was found using an N'Δ form of βCATENIN that is APC insensitive. To activate this last step of canonical WNT signaling, a fusion between TCF and the potent transactivation domain of the viral VP16 protein, TCF^VP16 (Melotti et al., 2014, supra), was used to directly and positively regulate TCF targets. […] Rescue of LGR5, cMYC and ASCL2 repression by CAP2 (at 5µM) was also observed although there was variability between the cell types, similarly to the repression of CDKN1A (Table 8), although in all cases it reversed its enhancement by CAP2 treatment (Table 8).

[5] = DLD1, 1.25µM, 16h, batch 3, vs DMSO=1
[6] = DLD1, 2.5µM, 16h, batch 3, vs DMSO=1
[7] = DLD1, 5µM, 16h, batch 3, vs DMSO=1
[8] = DLD1, 10µM, 16h, batch 3, vs DMSO=1
[9] = Table 7, DLD1, 1.25µM, vs DMSO=1
[10] = Table 7, DLD1, 2.5µM, vs DMSO=1
[11] = Table 11, head 'in vitro', DLD1, concentration not given
[12] = Table 13, DLD1 secondary 3D spheroids, pretreated 2.5µM

CC1=C(C)C(=O)O[C@@H]([C@](C)(O)[C@]2(O)CC[C@@]3(O)[C@@H]4CC=C5CC=CC(=O)[C@]5(C)[C@H]4CC[C@]23C)C1 [CAP2]
EED expression (Epigenetic regulators): 0.3
SETD6 expression (Epigenetic regulators): 0.2
SMARCAL1 expression (Epigenetic regulators): 0.2
TAF5L expression (Epigenetic regulators): 0.4
TBL1XR1 expression (Epigenetic regulators): 0.02
ZMYND8 expression (Epigenetic regulators): 0.1
IC50 (DLD1 cells): < 1250 nM
AXIN2 expression (WNT-TCF targets [1]; [5]): 1.2
LGR5 expression (WNT-TCF targets [1]; [5]): 1.6
AXIN2 expression (WNT-TCF targets [1]; [6]): 0.2
LGR5 expression (WNT-TCF targets [1]; [6]): 0.3
AXIN2 expression (WNT-TCF targets [1]; [7]): 0.3
LGR5 expression (WNT-TCF targets [1]; [7]): 0.1
AXIN2 expression (WNT-TCF targets [1]; [8]): 0.1
LGR5 expression (WNT-TCF targets [1]; [8]): 0.04
AXIN2 expression level as compared to control (WNT-TCF targets [1]; DLD1, 2D culture, 2.5µm): 0.2
ASCL2 expression (WNT-TCF targets [1]; [9]): 0.2
AXIN2 expression (WNT-TCF targets [1]; [9]): 0.8
CDKN1A expression (WNT-TCF targets [1]; [9]): 7.2
LEF1 expression (WNT-TCF targets [1]; [9]): 0.4
LGR5 expression (WNT-TCF targets [1]; [9]): 0.5
cMYC expression (WNT-TCF targets [1]; [9]): 0.5
ASCL2 expression (WNT-TCF targets [1]; [10]): 0.2
AXIN2 expression (WNT-TCF targets [1]; [10]): 0.6
CDKN1A expression (WNT-TCF targets [1]; [10]): 8.6
LEF1 expression (WNT-TCF targets [1]; [10]): 0.3
LGR5 expression (WNT-TCF targets [1]; [10]): 0.3
cMYC expression (WNT-TCF targets [1]; [10]): 0.2
ASCL2 expression (WNT-TCF targets [1]; Table 7, DLD1, 5µM, vs DMSO=1): 0.3
AXIN2 expression (WNT-TCF targets [1]; Table 7, DLD1, 5µM, vs DMSO=1): 0.5
CDKN1A expression (WNT-TCF targets [1]; Table 7, DLD1, 5µM, vs DMSO=1): 9.0
LEF1 expression (WNT-TCF targets [1]; Table 7, DLD1, 5µM, vs DMSO=1): 0.1
LGR5 expression (WNT-TCF targets [1]; Table 7, DLD1, 5µM, vs DMSO=1): 0.1
cMYC expression (WNT-TCF targets [1]; Table 7, DLD1, 5µM, vs DMSO=1): 0.001
ASCL2 expression (WNT-TCF targets [1]; Table 7, DLD1, 10µM, vs DMSO=1): 0.3
AXIN2 expression (WNT-TCF targets [1]; Table 7, DLD1, 10µM, vs DMSO=1): 0.2
CDKN1A expression (WNT-TCF targets [1]; Table 7, DLD1, 10µM, vs DMSO=1): 6.1
LEF1 expression (WNT-TCF targets [1]; Table 7, DLD1, 10µM, vs DMSO=1): 0.1
LGR5 expression (WNT-TCF targets [1]; Table 7, DLD1, 10µM, vs DMSO=1): 0.1
cMYC expression (WNT-TCF targets [1]; Table 7, DLD1, 10µM, vs DMSO=1): 0.0002
ASCL2 expression (WNT-TCF targets [1]; [11]): 0.3
AXIN2 expression (WNT-TCF targets [1]; [11]): 0.5
LGR5 expression (WNT-TCF targets [1]; [11]): 0.1
AXIN2 expression (WNT-TCF targets [1]; Table 13, DLD1 2D, 2.5µM): 0.2
cMYC expression (WNT-TCF targets [1]; Table 13, DLD1 2D, 2.5µM): 0.1
AXIN2 expression (WNT-TCF targets [1]; [12]): 0.5
cMYC expression (WNT-TCF targets [1]; [12]): 0.4
AXIN2 expression (WNT-TCF targets [2]; 1.25µM): 0.9
LGR5 expression (WNT-TCF targets [2]; 1.25µM): 0.5
AXIN2 expression (WNT-TCF targets [2]; 2.5µM): 0.8
LGR5 expression (WNT-TCF targets [2]; 2.5µM): 0.3
AXIN2 expression (WNT-TCF targets [2]; 5µM): 0.7
LGR5 expression (WNT-TCF targets [2]; 5µM): 0.2
AXIN2 expression (WNT-TCF targets [2]; 10µM): 0.5
LGR5 expression (WNT-TCF targets [2]; 10µM): 0.2
AXIN2 expression (WNT-TCF targets [3]; 1.25µM): 0.4
LEF1 expression (WNT-TCF targets [3]; 1.25µM): 0.1
AXIN2 expression (WNT-TCF targets [3]; 2.5µM): 0.6
LEF1 expression (WNT-TCF targets [3]; 2.5µM): 0.2
AXIN2 expression (WNT-TCF targets [3]; 5µM): 0.3
LEF1 expression (WNT-TCF targets [3]; 5µM): 0.1
AXIN2 expression (WNT-TCF targets [3]; 10µM): 0.6
LEF1 expression (WNT-TCF targets [3]; 10µM): 0.1
ASCL2 expression, TCF^VP16+ CAP2 / control + CAP2 (WNT-TCF targets [4]): 3.5
AXIN2 expression, TCF^VP16+ CAP2 / control + CAP2 (WNT-TCF targets [4]): 21.9
CDKN1A expression, TCF^VP16+ CAP2 / control + CAP2 (WNT-TCF targets [4]): 0.8
LGR5 expression, TCF^VP16+ CAP2 / control + CAP2 (WNT-TCF targets [4]): 2.9
cMYC expression, TCF^VP16+ CAP2 / control + CAP2 (WNT-TCF targets [4]): 3.3
